Data on 1 compound can be found in patent US20240197813A1, “TREATMENT OF DYSPHAGIA” (OT4B, priority 2021, published 2024).

In series [1] the test system is dysphagia in patient with Prader-Willi syndrome. As to the kind of experiment: Case report PATIENT 1: daily intranasal oxytocin, videofluoroscopic swallow study (VFSS). The format is in vivo, human. The conditions noted are these: PWS patient, 8 IU daily intranasal, 3 weeks. An excerpt: PATIENT 1 was […] with Prader-Willi syndrome due to maternal uniparental disomy diagnosed soon after at birth.
The videofluoroscopic swallow study (VFSS) was abnormal with prolonged oesophageal transit and decreased peristalsis and abnormal closure of upper oesophageal sphincter.
They received 8IU of daily intranasal OXT during 3 weeks.

Series [2] relates to infants with PWS under 6 months old. The note with it: cited from earlier work.
Series [3] deals with dysphagia in patient with neurodevelopmental disorder and hypothalamic disorder. The series can be described thus: Case report PATIENT 2: daily intranasal oxytocin, VFSS and clinical symptoms. The format is in vivo, human. The conditions noted are these: 16 IU daily intranasal, 3 weeks. An excerpt:
PATIENT 2 was […]. They suffered from neurodevelopmental disorder and presented hypothalamic disorder.
The VFSS was abnormal including slow pharyngeal transit with pharyngeal residues and slow oesophageal transit with oesophageal reflux and stasis.
They received daily 16 IU of intranasal OXT during 3 weeks.

Entries after “also recorded” stand apart in the source; their conditions may differ.

Take `CC[C@H](C)[C@@H]1NC(=O)[C@H](Cc2ccc(O)cc2)NC(=O)[C@@H](N)CSSC[C@@H](C(=O)N2CCC[C@H]2C(=O)N[C@@H](CC(C)C)C(=O)NCC(N)=O)NC(=O)[C@H](CC(N)=O)NC(=O)[C@H](CCC(N)=O)NC1=O` [oxytocin]: in series [1], the VFSS overall result is “improved VFSS”, the “oesophageal transit (VFSS)” value is reported as “improved oesophageal transit; also recorded: improve esophageal transit”, the “peristalsis (VFSS)” value is given as “complete normalization of peristalsis” and the tolerability of treatment entry is given as “well tolerated”. Besides, in series [1], the “upper oesophageal sphincter closure (VFSS)” value was “normal upper oesophageal sphincter closure; also recorded: complete normalization”. Also, in series [2], the “tolerability of intranasal administration” value is “well-tolerated”. Moreover, the “feeding and social skills” value in series [2] (intranasal) is “significantly improves”. Also, in series [3], the “clinical symptoms of dysphagia” value was “improved clinical symptoms of dysphagia”; the oesophageal transit result is on record as “normalize”; the “oropharyngeal initiation and synchronisation” value was “normalize oropharyngeal initiation and synchronization”; the “stasis and reflux on VFSS after treatment” value was “neither stasis nor reflux”. In addition, in series [3], the tolerability of treatment entry is listed as “well tolerated”. In series [3] (listed as OXT), the oesophageal transit entry was “normalization of oesophageal transit”; the “oropharyngeal initiation and synchronisation” value is “normalization of oropharyngeal initiation and synchronisation”.
